Experiments:
[1] = Single-dose oral pharmacokinetic study of ATB tablets in healthy human subjects (plasma and saliva, non-compartmental analysis); type: in vivo; settings: after 2400 mg ATB oral administration; LLOQ of Dict […]
Protocol: In addition, in vivo correlation between plasma and saliva concentrations was determined as the secondary outcome.
The ratio of drug concentration in plasma and saliva were calculated using Equations (1) and (2). (1) RCmax=Cmax saliva/Cmax plasma (2) RAUC=AUC0–24 saliva/AUC0–24 plasma […]
S2.1. Human Pharmacokinetic Study Design
The study was conducted in two phases. Two self-volunteered subjects participated in the study […]
Participants refrained from consumption of […]
dosing blood and saliva samples were collected. Each participant received single-dose oral […]
saliva sample kit for salivary collection. Plasma samples were then collected by centrifugation of […]
hour post-administration. […]
administration. […] Throughout the […]
collected and saline lock was removed. Participants returned the next day morning for 24-hour […]
Participants fasted 8-12 hours before each

[2] = Stability of ATB tablets (ICH storage conditions); settings: for remaining percentage in ATB tablets, Long term 3 months / remaining percentage in ATB tablets, Long term 6 months / remaining percentage in ATB tablets, Long term 12 months: 25 ± 2 °C/60 ± 5% RH
Protocol: Two independent batches of ATB tablets were tested according to International Conference on Harmonization (ICH) Guideline for long-term (12 months at 25 ± 2 °C/60 ± 5% RH), intermediate (6 months at 30 ± 2 °C/65 ± 5% RH), and accelerated (40 ± 2 °C/75 ± 5% RH) stability [12].

[3] = Sample stability of ATB components (bench, freeze-thaw, short-term, long-term); type: physicochemical; settings: in % (unit assumed)
[4] = as above; type: physicochemical; settings: in % (unit assumed); remark: listed apart in the source
Protocol: samples for calibration were prepared. The study and QC samples were prepared on the same day as the UPLC-MS/MS analysis was done.
Calibration curves were prepared the same way as described in section S1.2.2. The linearity of each calibration curve was determined by plotting the peak area ratio of Matr, Maac, Dict, and Frax to I.S. in plasma. […] The lower limit of […] was defined based on a signal-to-noise ratio of 10:1.
S1.2.4 Extraction recovery and matrix effect
The extraction recoveries of Matr, Maac, Dict, and Frax were determined by comparing the relative peak areas obtained from blank plasma spiked with analytes and those obtained from water spiked with the same amounts of analytes. Matrix effect was determined by comparing the peak areas of blank plasma extracts spikes with analytes and I.S. with those of the standard solutions dried and reconstituted with mobile phase. The quality control samples were prepared in plasma.
Bench work (25°C for 4 hours), short-term (-20°C for 7 days), long-term (-80°C for 4 months) and three freeze-thaw cycle stabilities were determined.

| remaining percentage in ATB tablets, Long term 3 months [2] | remaining percentage in ATB tablets, Long term 6 months [2] | remaining percentage in ATB tablets, Long term 12 months [2] | remaining percentage in ATB tablets, Intermediate 3 months ([2]; 30 ± 2 °C/65 ± 5% RH) | remaining percentage in ATB tablets, Intermediate 6 months ([2]; 30 ± 2 °C/65 ± 5% RH) | remaining percentage in ATB tablets, Accelerated term 3 months ([2]; 40 ± 2 °C/75 ± 5% RH) | remaining percentage in ATB tablets, Accelerated term 6 months ([2]; 40 ± 2 °C/75 ± 5% RH) | Stability, Long-term (6 months, -80 oC) ([3]; HQC concentration level) | Stability, Bench work (4 hrs, 25 oC) ([3]; LOQ concentration level) | Stability, Long-term (6 months, -80 oC) ([3]; LOQ concentration level) | Stability, Short-term (7 days, -20 oC) ([3]; LOQ concentration level) | Stability, Long-term (6 months, -80 oC) ([3]; MQC concentration level) | Stability, Short-term (7 days, -20 oC) ([3]; MQC concentration level) | Stability, 3 cycles freeze-thaw ([4]; HQC concentration level) | Stability, Bench work (4 hrs, 25 oC) ([4]; HQC concentration level) | Stability, Short-term (7 days, -20 oC) ([4]; HQC concentration level) | Stability, 3 cycles freeze-thaw ([4]; LOQ concentration level) | Stability, 3 cycles freeze-thaw ([4]; MQC concentration level) | Stability, Bench work (4 hrs, 25 oC) ([4]; MQC concentration level) | Compound | detection in plasma and saliva samples [1] |
| --- | --- | --- | --- | --- | --- | --- | --- | --- | --- | --- | --- | --- | --- | --- | --- | --- | --- | --- | --- | --- |
| 92.4 ± 6.4% | 81.2 ± 10.1% | 93.8 ± 1.0% | 112.5 ± 7.2% | 113.1 ± 7.2% | 84.3 ± 13.2% | 115.8 ± 1.5% | 94.8 ± 0.4 | 108.5 ± 5.0 | 85.7 ± 3.6 | 89.6 ± 0.5 | 90.1 ± 5.6 | 96.6 ± 5.8 | 98.9 ± 2.2 | 89.1 ± 9.9 | 99.1 ± 8.0 | 105.7 ± 3.2 | 104.0 ± 1.3 | 90.5 ± 8.0 | CC1=C2C(=O)O[C@@H](c3ccoc3)[C@]2(C)CCC1 [Frax, fraxinellone] | not detected in any study sample |
| 81.1 ± 5.3% | 101.6±0.2% | 89.1 ± 4.2% | – | – | – | – | 92.3 ± 5.7 | 93.8 ± 11.6 | 87.0 ± 5.1 | 99.6 ± 1.4 | 85.5 ± 0.4 | 89.1 ± 11.0 | 114.7 ± 2.8 | 108.7 ± 8.1 | 91.2 ± 8.0 | 113.3 ± 6.4 | 114.6 ± 3.2 | 109.1 ± 5.9 | Oc1ccc2c(c1)OC[C@H]1c3cc4c(cc3O[C@@H]21)OCO4 [Maac, maackiain] | detected in 30 min plasma sample of only one participant |
